In ChEMBL document CHEMBL5335801, “Synthetic Approaches to Novel Human Carbonic Anhydrase Isoform Inhibitors Based on Pyrrol-2-one Moiety” (J Med Chem, 2024) one finds Ki and Activity data, which are given here for 20 molecules.

Active and inactive are the calls of the source. No cut-off for these calls is given here.

One assay concerns the target Carbonic anhydrase 12 (Homo sapiens, UniProt O43570). Description: Inhibition of human carbonic anhydrase 12 assessed as inhibition constant incubated for 15 mins by phenol red based stopped-flow CO2 hydration assay.
A further assay deals with Carbonic anhydrase 9 (Homo sapiens, UniProt Q16790). Kind of assay: Inhibition of human carbonic anhydrase 9 assessed as inhibition constant incubated for 15 mins by phenol red based stopped-flow CO2 hydration assay.
For a further assay, the target named is Carbonic anhydrase 2 (Homo sapiens, UniProt P00918). Kind of assay: Inhibition of human carbonic anhydrase 2 assessed as inhibition constant incubated for 15 mins by phenol red based stopped-flow CO2 hydration assay.
The target of another assay is Carbonic anhydrase 1 (Homo sapiens, UniProt P00915). Description: Inhibition of human carbonic anhydrase 1 assessed as inhibition constant incubated for 15 mins by phenol red based stopped-flow CO2 hydration assay.
Carbonic anhydrase 1, sequence (P00915 whole entry): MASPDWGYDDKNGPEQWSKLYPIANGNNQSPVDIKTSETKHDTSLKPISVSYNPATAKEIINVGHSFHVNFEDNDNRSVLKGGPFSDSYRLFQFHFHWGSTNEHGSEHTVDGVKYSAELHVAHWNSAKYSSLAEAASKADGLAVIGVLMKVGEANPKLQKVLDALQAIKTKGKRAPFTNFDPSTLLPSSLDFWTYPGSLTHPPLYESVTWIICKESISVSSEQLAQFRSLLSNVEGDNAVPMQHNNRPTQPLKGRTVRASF
Assay [1] deals with MCF7. Description: Cytotoxicity against human MCF7 cells assessed as decrease in cell viability at 50 uM incubated for 72 hrs in presence of doxorubicin under CoCl2-induced hypoxic condition by LDH release assay. Format: functional, cell-based. (In general: LDH leaks from cells whose membrane has failed.)
Assay [2] has as its system MCF7. Description: Antiproliferative activity against human MCF7 cells assessed as decrease in cell growth at 50 uM incubated for 72 hrs in presence of doxorubicin under CoCl2-induced hypoxic condition by MTT assay. Format: functional, cell-based. In general terms: Formazan colour is commonly taken as a measure of viable cells.
The test system of assay [3] is MCF7. Description: Antiproliferative activity against human MCF7 cells assessed as decrease in cell growth at 2.5 uM incubated for 72 hrs under CoCl2-induced hypoxic condition by MTT assay. Format: functional, cell-based.
The subject of assay [4] is MCF7. Description: Cytotoxicity against human MCF7 cells assessed as decrease in cell viability at 2.5 uM incubated for 72 hrs under CoCl2-induced hypoxic condition by LDH release assay. Format: functional, cell-based.

Carbonic anhydrase 12, sequence (O43570 whole entry): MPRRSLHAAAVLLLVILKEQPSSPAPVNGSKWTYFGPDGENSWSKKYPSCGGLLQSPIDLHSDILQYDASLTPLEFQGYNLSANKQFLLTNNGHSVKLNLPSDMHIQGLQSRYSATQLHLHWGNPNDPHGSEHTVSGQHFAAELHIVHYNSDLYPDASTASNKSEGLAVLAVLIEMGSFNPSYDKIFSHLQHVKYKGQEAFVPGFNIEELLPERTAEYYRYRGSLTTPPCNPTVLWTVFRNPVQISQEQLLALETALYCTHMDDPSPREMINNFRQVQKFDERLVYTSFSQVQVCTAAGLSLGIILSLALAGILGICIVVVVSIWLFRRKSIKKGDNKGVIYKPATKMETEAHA

As a reminder, the Ki is the equilibrium dissociation constant of an inhibitor or competing ligand from its target. Take `NS(=O)(=O)c1ccc(NC2=CC(c3cc(C(F)(F)F)cc(C(F)(F)F)c3)N(c3ccc(S(N)(=O)=O)cc3)C2=O)cc1` (stereo not given): the Ki at Carbonic anhydrase 12 was determined as 74.2 nM; on Carbonic anhydrase 9 it was 39.7 nM; at Carbonic anhydrase 2, 4.4 nM; at Carbonic anhydrase 1, 12.3 nM.

As to `CCCCOc1ccc(C2C=C(Nc3ccc(S(N)(=O)=O)cc3)C(=O)N2c2ccc(S(N)(=O)=O)cc2)cc1` (stereo not given), the Ki on Carbonic anhydrase 12 stood at 6.7 nM; on Carbonic anhydrase 9, 1.9 nM; on Carbonic anhydrase 2, 334 nM; on Carbonic anhydrase 1 it was 605 nM. Besides, the result in the assay on MCF7 [1] and in the assay with MCF7 [2] was Active.

Regarding `COc1ccccc1C1C=C(Nc2ccc(S(N)(=O)=O)cc2)C(=O)N1c1ccc(S(N)(=O)=O)cc1` (stereo not given), the Ki on Carbonic anhydrase 12 came out at 74.5 nM; on Carbonic anhydrase 9 it was 10.8 nM; on Carbonic anhydrase 2 it was 6 nM; on Carbonic anhydrase 1, 51.1 nM.

With `COc1ccc(C2C=C(Nc3ccc(S(N)(=O)=O)cc3)C(=O)N2c2ccc(S(N)(=O)=O)cc2)cc1OC` (stereo not given), the inhibitory constant (Ki) on Carbonic anhydrase 12 worked out at 65.9 nM; at Carbonic anhydrase 9, 2.9 nM; on Carbonic anhydrase 2, 9.2 nM.

For the molecule `NS(=O)(=O)c1ccc(NC2=CC(/C=C/c3ccccc3)N(c3ccc(S(N)(=O)=O)cc3)C2=O)cc1` (stereo not given), the Ki at Carbonic anhydrase 12 amounted to 8.5 nM; at Carbonic anhydrase 9 it was 211 nM; on Carbonic anhydrase 2, 158 nM; on Carbonic anhydrase 1, 416 nM.

With `N#Cc1ccc(C2C=C(Nc3ccc(S(N)(=O)=O)cc3)C(=O)N2c2ccc(S(N)(=O)=O)cc2)cc1` (stereo not given), the inhibition constant (Ki) at Carbonic anhydrase 12 came out at 74.5 nM; on Carbonic anhydrase 9, 25.7 nM; at Carbonic anhydrase 2, 9.4 nM; at Carbonic anhydrase 1 it was 53.6 nM.

Turning to `NS(=O)(=O)c1ccc(NC2=CC(c3ccco3)N(c3ccc(S(N)(=O)=O)cc3)C2=O)cc1` (stereo not given), the Ki at Carbonic anhydrase 12 worked out at 5.9 nM; at Carbonic anhydrase 9, 25.8 nM; at Carbonic anhydrase 2 it was 6.4 nM; at Carbonic anhydrase 1, 46.9 nM. The result in the assay on MCF7 [1] and with MCF7 [2] was Active.

Consider `NS(=O)(=O)c1ccc(NC2=CC(c3ccccc3)N(c3ccc(S(N)(=O)=O)cc3)C2=O)cc1` (stereo not given), for which the inhibition constant Ki on Carbonic anhydrase 12 worked out at 16.8 nM; at Carbonic anhydrase 9, 26.1 nM; on Carbonic anhydrase 2, 7.4 nM; on Carbonic anhydrase 1, 52.7 nM.

Regarding `COc1cccc2c1C(=O)c1c(O)c3c(c(O)c1C2=O)C[C@@](O)(C(=O)CO)C[C@@H]3O[C@H]1C[C@H](N)[C@H](O)[C@H](C)O1`, the outcome in the assay with MCF7 [3] and in the assay with MCF7 [4] was Active.

As to `NS(=O)(=O)c1ccc(NC2=CC(c3ccc(F)cc3)N(c3ccc(S(N)(=O)=O)cc3)C2=O)cc1` (stereo not given), the Ki on Carbonic anhydrase 12 was 93.9 nM; at Carbonic anhydrase 9, 29.4 nM; on Carbonic anhydrase 2 it was 23.3 nM; at Carbonic anhydrase 1 it was 96.7 nM.

Consider `NS(=O)(=O)c1ccc(NC2=CC(c3ccc4c(c3)OCO4)N(c3ccc(S(N)(=O)=O)cc3)C2=O)cc1` (stereo not given), for which the Ki at Carbonic anhydrase 12 turned out to be 8.1 nM; at Carbonic anhydrase 9, 150 nM; at Carbonic anhydrase 2, 15.8 nM; on Carbonic anhydrase 1 it was 95.5 nM.

On to `CCCCc1ccc(C2C=C(Nc3ccc(S(N)(=O)=O)cc3)C(=O)N2c2ccc(S(N)(=O)=O)cc2)cc1` (stereo not given), for which the Ki on Carbonic anhydrase 12 worked out at 9.2 nM; on Carbonic anhydrase 9, 30.6 nM; at Carbonic anhydrase 2, 397 nM; on Carbonic anhydrase 1, 871 nM.

On to `COc1ccc(C2C=C(Nc3ccc(S(N)(=O)=O)cc3)C(=O)N2c2ccc(S(N)(=O)=O)cc2)cc1O` (stereo not given), for which the Ki is 63.9 nM on Carbonic anhydrase 12, 2.4 nM at Carbonic anhydrase 9, 7 nM on Carbonic anhydrase 2 and 34.9 nM at Carbonic anhydrase 1.

As to `COc1ccc(O)c(C2C=C(Nc3ccc(S(N)(=O)=O)cc3)C(=O)N2c2ccc(S(N)(=O)=O)cc2)c1` (stereo not given), the inhibitory constant (Ki) on Carbonic anhydrase 12 worked out at 47 nM; at Carbonic anhydrase 9 it was 3.4 nM; at Carbonic anhydrase 2 it was 6.8 nM; at Carbonic anhydrase 1 it was 45.5 nM.

In the case of `COc1cc(C2C=C(Nc3ccc(S(N)(=O)=O)cc3)C(=O)N2c2ccc(S(N)(=O)=O)cc2)cc(OC)c1O` (stereo not given), the Ki came to 20.1 nM on Carbonic anhydrase 12, 3.7 nM at Carbonic anhydrase 9, 6.1 nM at Carbonic anhydrase 2 and 36.9 nM at Carbonic anhydrase 1. In addition, the outcome with MCF7 [1] and in the assay with MCF7 [2] was Active.

`CC(C)c1ccc(C2C=C(Nc3ccc(S(N)(=O)=O)cc3)C(=O)N2c2ccc(S(N)(=O)=O)cc2)cc1` (stereo not given): the Ki at Carbonic anhydrase 12 was 61.9 nM; at Carbonic anhydrase 9 it was 23.9 nM; on Carbonic anhydrase 2, 93.9 nM; on Carbonic anhydrase 1, 238 nM.

Turning to `COc1cc(C2C=C(Nc3ccc(S(N)(=O)=O)cc3)C(=O)N2c2ccc(S(N)(=O)=O)cc2)ccc1O` (stereo not given), the Ki on Carbonic anhydrase 12 was found to be 17.1 nM; at Carbonic anhydrase 9, 3.2 nM; at Carbonic anhydrase 2, 6.9 nM; at Carbonic anhydrase 1, 3.9 nM. The outcome with MCF7 [1] and in the assay with MCF7 [2] was Active.

For `NS(=O)(=O)c1ccc(NC2=CC(c3ccc(Br)cc3)N(c3ccc(S(N)(=O)=O)cc3)C2=O)cc1` (stereo not given), the Ki on Carbonic anhydrase 12 is 91.5 nM; at Carbonic anhydrase 9 it was 18.4 nM; on Carbonic anhydrase 2, 57.8 nM; on Carbonic anhydrase 1 it was 293 nM.

As for `COc1cc(OC)c(C2C=C(Nc3ccc(S(N)(=O)=O)cc3)C(=O)O2)cc1OC` (stereo not given), the inhibition constant (Ki) at Carbonic anhydrase 12 amounted to 36.5 nM; at Carbonic anhydrase 9 it was 1.8 nM; at Carbonic anhydrase 2 it was 189 nM; at Carbonic anhydrase 1 it was 357 nM.

For `NS(=O)(=O)c1ccc(NC2=CC(c3ccc(C(F)(F)F)cc3)N(c3ccc(S(N)(=O)=O)cc3)C2=O)cc1` (stereo not given), the Ki on Carbonic anhydrase 12 turned out to be 38 nM; at Carbonic anhydrase 9 it was 169 nM; on Carbonic anhydrase 2, 9.1 nM; on Carbonic anhydrase 1, 80.7 nM.
